According to publication PMC11161644, “An effective and rapidly degradable disinfectant from disinfection byproducts” (Nature Communications, 2024):
Values joined by “and” are separate entries in the source; they are usually repeats but may differ in a detail not shown here. Identical values can stand only once.

Legend:
[1] = UPLC/ESI-tqMS time profile of 2,6-DCQ and its degradation products in simulated seawater (pH 8.2, darkness); OH-DCQ formation; settings: for Concentration: 2,6-DCQ degradation / OH-DCQ formation; for Peak area: 2,6-DCQ degradation, pH 8.2, darkness
Experimental: A Waters UPLC system coupled with ESI-tqMS was used to characterize the degradation products of 2,6-DCQ. The UPLC separation was performed using an HSS T3 column (100 × 2.1 mm, 1.8 μm particle size, Waters) with a column temperature of 35 °C. A gradient eluent of methanol–water was applied at a flow rate of 0.4 mL min^−1. The gradient program was set as follows: methanol/water (v/v) ratio changed linearly from 5/95 to 90/10 in the first 8 min and then returned to 5/95 during 8.0‒8.1 min, which was held for 2.9 min for re-equilibration. The ESI-tqMS was set as follows: ESI negative mode, capillary voltage 2.8 kV, cone voltage 10–50 V (depending on analytes), cone gas flow 50 L h^−1, source temperature 120 °C, desolvation temperature 400 °C, desolvation gas flow 800 L h^−1, collision energy 15–50 eV (depending on analytes), collision gas (argon) flow 0.25 mL min^−1, and mass resolution 15 (1-unit resolution).
The degradation of 2,6-DCQ in seawater was simulated by adding 10 mg L^−1 2,6-DCQ to 50 mL ultrapure water, which was adjusted to pH 8.2 with 5 mM sodium carbonate (to simulate the alkalinity in seawater and also to be compatible with the subsequent UPLC/ESI-tqMS analysis). The sample was kept in darkness for 0–24 h, during which the pH of the sample was maintained at 8.1 ± 0.1. At a designated reaction time, 7.5 μL of the sample was injected into the UPLC system. For a nonhalogenated degradation product, the selected ion recording (SIR) mode with a dwell time of 0.05 s was adopted to obtain the retention time. For halogenated degradation products, the multiple reaction monitoring mode with a dwell time of 0.05 s was used to obtain the retention time and the isotopic abundance ratio. To investigate the time-dependent profile of 2,6-DCQ and its degradation products, the peak area of each compound was determined using the SIR mode in the UPLC/ESI-tqMS analysis.
The second aliquot was subjected to analysis of total organic halogen to quantify the collected OH-DCQ. The determination of total organic halogen was based on Standard Method 5320B[52], with modifications of using off-line ion chromatography for halide detection. Briefly, the aliquot was dissolved in 100 mL ultrapure water and acidified to pH 2 with concentrated nitric acid[52] prior to adsorption onto pre-packed activated carbon columns (Mitsubishi). A three-channel adsorption module (TXA03C, Mitsubishi Chemical Analytech) was used for adsorption. An AQF-100 automatic quick furnace (Mitsubishi Chemical Analytech) was used for pyrolysis. During the pyrolysis process, the chlorine atoms in OH-DCQ were converted to chloride. The chloride ion concentration was determined using an ICS-3000 ion chromatography system (Dionex). 2,6-DCQ was used as a standard compound for measuring total organic halogen to determine the recovery of the analysis. The total organic halogen analysis was conducted in duplicate.

E. coli = test: Fluorescence microscopic analysis of propidium iodide-stained E. coli (membrane integrity); format: cell-based, Escherichia coli; settings: with increasing 2,6-DCQ dose
Experimental: The E. coli cells in the control and disinfected samples were pelleted by centrifugation at 8000×g (5 min, 4 °C) and resuspended in 200 μL PBS (0.1 M, pH 7.2). Propidium iodide[54] was added to the cell suspension at a concentration of 75 μM. After propidium iodide staining in darkness for 30 min, the samples were washed twice with PBS and mounted on glass slides. The samples were then examined using a fluorescence microscope (Eclipse Ti, Nikon, Japan). The fluorescence intensity was semi-quantified with ImageJ software (National Institutes of Health, Bethesda, MD).

P. dumerilii embryos = test: Developmental toxicity (EC50) of OH-DCQ and 2,6-DCQ to P. dumerilii embryos; format: in vivo, Platynereis dumerilii
Experimental: The third aliquot was subjected to the developmental toxicity assay with P. dumerilii embryos. The aliquot was dissolved in 10 mL of seawater and adjusted to pH 8.2. The embryos at 12-h postfertilization were exposed to different levels of OH-DCQ for 12 h. By 24-h postfertilization, normally and abnormally developed embryos were counted using an inverted stereomicroscope. Based on the percentage of normally developed embryos, an exposure−response curve was generated. The median effective concentration (EC50) was determined using SigmaPlot 12 software. The developmental toxicity of 2,6-DCQ was also evaluated for comparison. The toxicity bioassay was conducted in duplicate.

rat = settings: oral; cited from earlier work
aquatic invertebrates = test system: aquatic invertebrates; design: method as in earlier work; settings: USEPA; cited from earlier work

O=C1C=C(Cl)C(=O)C(Cl)=C1 [2,6-DCQ, 2,6-dichlorobenzoquinone]
Concentration ([1]; degradation time 0 h): 10000 ng/mL | Concentration ([1]; degradation time 0.25 h): 9325 ng/mL | Concentration ([1]; degradation time 0.5 h): 7750.7 ng/mL | Concentration ([1]; degradation time 0.75 h): 7678 ng/mL | Concentration ([1]; degradation time 1 h): 6527 ng/mL | Concentration ([1]; degradation time 1.25 h): 5831 ng/mL | Concentration ([1]; degradation time 1.5 h): 4783 ng/mL | Concentration ([1]; degradation time 1.75 h): 4325 ng/mL | Concentration ([1]; degradation time 2 h): 3926 ng/mL | Concentration ([1]; degradation time 2.25 h): 3481 ng/mL | Concentration ([1]; degradation time 2.5 h): 3034.4 ng/mL | Concentration ([1]; degradation time 2.75 h): 2761 ng/mL | Concentration ([1]; degradation time 3 h): 2333 ng/mL | Concentration ([1]; degradation time 3.25 h): 2120 ng/mL | Concentration ([1]; degradation time 3.5 h): 1754 ng/mL | Concentration ([1]; degradation time 3.75 h): 1608 ng/mL | Concentration ([1]; degradation time 4 h): 1408 ng/mL | Concentration ([1]; degradation time 4.5 h): 986.7 ng/mL | Concentration ([1]; degradation time 5 h): 705.1 ng/mL | Concentration ([1]; degradation time 5.5 h): 583.3 ng/mL | Concentration ([1]; degradation time 6 h): 424 ng/mL | Concentration ([1]; degradation time 6.5 h): 287.5 ng/mL | Concentration ([1]; degradation time 7 h): 231.6 ng/mL | Concentration ([1]; degradation time 7.5 h): 179.6 ng/mL | Concentration ([1]; degradation time 8 h): 153.3 ng/mL | Concentration ([1]; degradation time 10 h): 54.98 ng/mL | Concentration ([1]; degradation time 12 h): 24.77 ng/mL | Concentration ([1]; degradation time 14 h): 14.36 ng/mL | Concentration ([1]; degradation time 16 h): 0 ng/mL | Concentration ([1]; degradation time 18 h): 0 ng/mL | Concentration ([1]; degradation time 20 h): 0 ng/mL | Concentration ([1]; degradation time 24 h): 0 ng/mL | Peak area ([1]; 0 h): 56527.8 | Peak area ([1]; 0.25 h): 52714.2 | Peak area ([1]; 0.5 h): 43813 | Peak area ([1]; 0.75 h): 43401.4 | Peak area ([1]; 1 h): 36894.2 | Peak area ([1]; 1.25 h): 32960.2 | Peak area ([1]; 1.5 h): 27035.4 | Peak area ([1]; 1.75 h): 24446.8 | Peak area ([1]; 2 h): 22195.6 | Peak area ([1]; 2.25 h): 19679.8 | Peak area ([1]; 2.5 h): 17152.8 | Peak area ([1]; 2.75 h): 15608.6 | Peak area ([1]; 3 h): 13185.2 | Peak area ([1]; 3.25 h): 11984 | Peak area ([1]; 3.5 h): 9914.8 | Peak area ([1]; 3.75 h): 9088.8 | Peak area ([1]; 4 h): 7959 | Peak area ([1]; 4.5 h): 5577.6 | Peak area ([1]; 5 h): 3985.8 | Peak area ([1]; 5.5 h): 3297 | Peak area ([1]; 6 h): 2396.8 | Peak area ([1]; 6.5 h): 1625.4 | Peak area ([1]; 7 h): 1309 | Peak area ([1]; 7.5 h): 1015 | Peak area ([1]; 8 h): 866.6 | Peak area ([1]; 10 h): 310.8 | Peak area ([1]; 12 h): 140 | Peak area ([1]; 14 h): 81.2 | Peak area ([1]; 16 h): 0 | Peak area ([1]; 18 h): 0 | Peak area ([1]; 20 h): 0 | Peak area ([1]; 24 h): 0 | Propidium iodide fluorescence intensity relative to control sample (E. coli): 3.5–59.2 times | Normal development (P. dumerilii embryos; 2,6-DCQ concentration 0.2 mg L-1): 80.7017% and 79.2079% | Normal development (P. dumerilii embryos; 2,6-DCQ concentration 0.3 mg L-1): 76.7442% and 82.4428% | Normal development (P. dumerilii embryos; 2,6-DCQ concentration 0.4 mg L-1): 80% and 80.822% | Normal development (P. dumerilii embryos; 2,6-DCQ concentration 0.5 mg L-1): 62.0155% and 62.3077% | Normal development (P. dumerilii embryos; 2,6-DCQ concentration 0.6 mg L-1): 42.1875% and 37.2727% | Normal development (P. dumerilii embryos; 2,6-DCQ concentration 0.75 mg L-1): 16.2963% and 20.7921% | Normal development (P. dumerilii embryos; 2,6-DCQ concentration 1 mg L-1): 7.407% and 6.667% | Developmental toxicity relative to OH-DCQ (times higher) (P. dumerilii embryos; P. dumerilii embryos): 149 times | LD10 (rat): 500 mg/kg

Cc1cc(O)cc(C)c1Cl [PCMX, para-chloro-meta-xylenol, reference compound]
Toxicity rating to aquatic invertebrates (aquatic invertebrates): moderately toxic | LD50 (rat): 3830 mg/kg
